Data on 5 compounds can be found in PubChem BioAssay (NCI).

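All cell lines were grown in 96-well plates and treated with compound for 48 hours. Abbreviation: GI50, concentration required for 50% inhibition of growth. TGI denotes the concentration required for complete inhibition of growth.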 Where only a bound is given, the exact number is not on record here.

What all share (experiment): NCI tumour cell line growth inhibition, 48 h
Assay [1] concerns MCF7 breast.
The subject of assay [2] is OVCAR-8 ovarian.
Assay [3] has as its system SK-MEL-5 melanoma.
Assay [4] concerns OVCAR-3 ovarian.
For assay [5], the system named is PC-3 prostate.
The subject of assay [6] is TK-10 renal.
The test system of assay [7] is U251 CNS.
In assay [8] the test system is HCC-2998 colon.
Assay [9] relates to NCI-H522 lung.
For assay [10], the system named is MDA-MB-231 breast.

Turning to `C=CCn1c2ccccc2c2c3c(c4c5ccccc5n(CC=C)c4c21)C(=O)N(O)C3=O`, the GI50 was 0.674 µM in assay [1]; 4.41 µM in assay [2]; 1.79 µM in assay [3]; 2.32 µM in assay [4]; 2.69 µM in assay [5]; 6.16 µM in assay [6]. For the same compound, the GI50 in assay [7] is 2.79 µM; in assay [8], 4.94 µM; in assay [9], 1.09 µM; in assay [10], 4.12 µM. For the same compound, the TGI in assay [1] stood at 29.9 µM; in [2], 28.3 µM; in assay [3], 4.1 µM; in assay [4], 8.07 µM; in assay [5] it was 25.3 µM; in [6] it was 35.7 µM. The TGI in assay [7] stood at 11.4 µM; in assay [8], 34 µM; in [9], 2.56 µM; in assay [10] it was 21.4 µM.

In the case of `c1ccc(-c2[nH]ncc2-c2ccnc(-c3ccc(OCCN4CCOCC4)cc3)c2)nc1`, the GI50 in assay [1], in assay [2], in assay [3], in [4], in [5] and in assay [6] was more than 25 µM throughout. For the same compound, the GI50 in assay [7], in [8], in assay [9] and in [10] was more than 25 µM each time. Also, the TGI in assay [1], in [2], in assay [3], in [4], in assay [5] and in assay [6] was more than 25 µM in each case. The TGI in assay [7], in assay [8], in assay [9] and in assay [10] was more than 25 µM throughout.

`CC(C)(C)[Si](C)(C)OCC1OC(n2cnc3c(=O)[nH]cnc32)CC1O` (stereo not given): the TGI in [1], in [2], in assay [3], in [4], in [5] and in [6] was more than 100 µM throughout. For the same compound, the TGI in assay [7], in assay [8], in assay [9] and in assay [10] was more than 100 µM in each case.

`CN1CCC2(CC1)N=C(SCC(=O)Nc1cnc3ccccc3c1)C(c1ccc(Br)cc1)=N2`: the GI50 is 1.8 µM in [1]; 2.33 µM in [2]; 1.68 µM in [3]; 3.29 µM in assay [4]; 1.77 µM in assay [5]; 1.99 µM in assay [6]. The GI50 in assay [7] is 1.83 µM; in [8], 1.85 µM; in [9], 1.91 µM; in assay [10] it was 1.55 µM. In addition, the TGI in assay [1] was 3.55 µM; in [2], 5.54 µM; in [3], 3.07 µM; in [4] it was 12 µM; in [5], 3.74 µM; in [6], 4.49 µM. Also, the TGI in assay [7] was 3.65 µM; in [8] it was 3.42 µM; in assay [9], 3.82 µM; in assay [10], 3.23 µM.

For the compound `C=C1C(=O)O[C@H]2[C@H]1CC/C(COC(=O)c1cccnc1N)=C\CC[C@@]1(C)O[C@@H]21`, the GI50 in assay [1] was 0.553 µM; in assay [2], 4.2 µM; in assay [3] it was 2.9 µM; in [4], 1.04 µM; in [5] it was 3.72 µM; in assay [6], 2.59 µM. The GI50 is 3.77 µM in assay [7], 4.43 µM in assay [8], 0.379 µM in assay [9] and 2.32 µM in assay [10]. In addition, the TGI in assay [1] worked out at 14.6 µM; in [2] it was 16.3 µM; in [3] it was 12.5 µM; in assay [4], 2.88 µM; in [5], 19.2 µM; in [6] it was 10.4 µM. Also, the TGI was 14.5 µM in assay [7], 16.2 µM in assay [8], 2 µM in [9] and 6.9 µM in assay [10].
